Experimental data as given in patent publication US20050091702A1, “Expression of polypeptides in rod outer segment membranes” (priority 2001, published 2005).

Key:
[1] = biological target: T1, 5HT1AR-GFP-1D4 fusion protein (Homo sapiens, UniProt P08908); assay: Saturation radioligand binding to transgenic tadpole membranes expressing 5HT1AR-GFP-1D4
T1 construct: expressed in transfected cells; host or cells: transgenic Xenopus laevis tadpoles (rod cells; homogenized membranes), transgene pXOP-5HTR-GFP-1D4
T1 sequence (P08908 with tags, fused parts or gaps): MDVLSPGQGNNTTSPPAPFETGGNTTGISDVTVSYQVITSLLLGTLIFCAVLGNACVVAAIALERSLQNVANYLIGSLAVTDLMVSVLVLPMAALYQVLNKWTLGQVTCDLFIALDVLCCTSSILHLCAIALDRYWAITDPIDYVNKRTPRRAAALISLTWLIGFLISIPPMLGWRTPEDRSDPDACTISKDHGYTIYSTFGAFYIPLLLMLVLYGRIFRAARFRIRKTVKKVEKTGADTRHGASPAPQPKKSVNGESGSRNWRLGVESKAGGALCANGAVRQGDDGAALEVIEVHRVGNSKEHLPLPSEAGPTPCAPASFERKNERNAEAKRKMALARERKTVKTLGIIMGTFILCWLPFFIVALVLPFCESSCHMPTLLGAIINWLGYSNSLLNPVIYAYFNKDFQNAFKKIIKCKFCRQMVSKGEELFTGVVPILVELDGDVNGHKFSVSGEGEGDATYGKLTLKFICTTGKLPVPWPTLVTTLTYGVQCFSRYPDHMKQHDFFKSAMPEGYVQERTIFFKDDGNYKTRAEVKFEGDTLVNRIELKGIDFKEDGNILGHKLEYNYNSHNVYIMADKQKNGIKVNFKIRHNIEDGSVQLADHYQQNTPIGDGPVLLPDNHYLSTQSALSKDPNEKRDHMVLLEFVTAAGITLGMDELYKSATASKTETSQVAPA
Method: (§1) Radioligand binding assay were performed using transgenic tadpoles (stage 48 or older) or CHO cells expressing 5HT1A receptors homogenized in binding buffer (50 mM Tris-HCl, pH 7.4, 2 mM MgCl2, 1 mM EDTA and proteinase inhibitor cocktail). The binding assay was performed in 96-well plate with [methyl-^3H]-MPPE as a radioligand. For saturation binding analyses, the membranes (20 μg/well) were incubated with 0.05% saponin in a final volume of 50 μl at room temperature for 10 min, and then incubated with 50 μl of [methyl-^3H]-MPPE (0-50 nM) for another 90 min. Nonspecific binding was determined in the presence of 10 μM serotonin. Assays were terminated by rapid filtration through GF/C filter plate with 4 times washes with washing buffer (20 mM Trics-HCl, pH 7.4). The radioactivity was measured by a TopCount (PerkinElmer). Assays were performed in duplicate.
(§2) Binding assays were performed to confirm that the 5HT1A receptor was expressed as a functional 5HT1AR-GPF-1D4 fusion protein in rod cell ROS of Xenopus tadpoles. Binding affinity was determined by measuring the binding affinity of [methyl-^3H]-MPPF, a radiolabeled selective ligand to the 5HT1A receptor, to the expressed fusion protein. Because the 5HT1A receptor expressed in ROS disk membranes is oriented with the extracellular side facing the interior of these disks and shielded from the solution, the detergent saponin was used to open up pores in these disk membranes and allow access to the ligands. Saponin at a concentration of 0.05% or more could effectively increase specific binding of [methyl-^3H]-MPPE to 5HT1AR transgenic tadpole membranes, but not to control tadpole membranes. […] Based on these observations, 0.05% saponin was included in all ligand binding assays.
(§3) Saturation binding assays were also performed to measure the binding affinity and compare it to 5HT1A receptor expressed in standard mammalian CHO cells. […] The low nanomolar affinity and extent of specific binding further corroborates that the 5HT1A receptor is properly folded in transgenic tadpoles. […]

5HT1A receptor [2] = biological target: T2, 5HT1A receptor (Homo sapiens, UniProt P08908); assay: Saturation radioligand binding to membranes from CHO cells expressing the 5HT1A receptor; details: membrane samples from CHO cells expressing the 5HT1A receptor, read-out: binding affinity KD
T2 construct: expressed in transfected cells; host or cells: CHO cells (transient expression)
T2 sequence (P08908 1-422): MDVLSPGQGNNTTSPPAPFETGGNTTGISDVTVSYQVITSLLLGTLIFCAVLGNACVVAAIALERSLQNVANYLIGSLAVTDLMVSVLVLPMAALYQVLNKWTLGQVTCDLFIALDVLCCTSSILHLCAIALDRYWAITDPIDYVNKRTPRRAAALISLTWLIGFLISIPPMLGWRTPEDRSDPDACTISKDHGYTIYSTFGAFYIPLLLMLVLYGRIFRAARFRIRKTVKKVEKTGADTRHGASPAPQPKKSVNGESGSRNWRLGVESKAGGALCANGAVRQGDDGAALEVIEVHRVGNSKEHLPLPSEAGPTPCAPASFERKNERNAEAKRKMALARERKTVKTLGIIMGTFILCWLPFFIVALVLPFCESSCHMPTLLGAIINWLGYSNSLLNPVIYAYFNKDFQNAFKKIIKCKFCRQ
Method: as §1
Saturation binding assays were also performed to measure the binding affinity and compare it to 5HT1A receptor expressed in standard mammalian CHO cells. […] The low nanomolar affinity and extent of specific binding further corroborates that the 5HT1A receptor is properly folded in transgenic tadpoles. […] For example, the effect on binding affinity may be due to different ligand kon or koff kinetic parameters, or different partition coefficients to the different lipids present in these membranes.

[3] = tested on: 5HT1AR-GFP-1D4 fusion protein; assay: Saturation radioligand binding to transgenic tadpole membranes expressing 5HT1AR-GFP-1D4; design: species or system human; details: tadpole KD versus CHO KD
Method: as §1, §2, §3

CHO membranes = assay: Hydroxylamine effect on [35S]GTPγS binding to CHO membranes; assay type: biochemical; details: 10 mM hydroxylamine
Method: (§4) A receptor binding assay was performed to determine retention of functional receptor using [^35S]GTPγS labeled receptor ligand. Transgenic tadpoles (stage 48 or older) or CHO cells expressing 5HT1A receptors were homogenized in binding buffer (20 mM HEPES, pH 7.4, 10 mM MgCl2, 1 mM EDTA, 100 mM NaCl). The binding assay was performed in 96-well Scintiplate (PerkinElmer). To reduce [^35S]-GTPγS binding to rhodopsin-activated transducin in retina membrane, the membrane from tadpoles was preincubated with 10 mM hydroxylamine in binding buffer at room temperature for 60 min. The membranes (25 μg/well) were incubated with indicated ligands for 30 min in a total volume of 150 μl binding buffer containing 10 μM GDP, 0.5% BSA, 1 mM DTT), then 50 μl of […] [^35S]-GTPγS was added to each well to make a final concentration of 200 pM. The binding assays were carried out at room temperature for 60 min under gentle shaking. Final concentration of hydroxylamine in binding assay should be no more than 1 mM, Nonspecific binding was determined in the presence of 10 μM unlabelled GTPγS. Assays were terminated by centrifugation at 4000 g for 15 min and removal of supernatant. The radioactivity was measured by a TopCounter (PerkinElmer). Assays were performed in triplicate. […]

[4] = biological target: T3, rhodopsin-transducin interaction (Xenopus laevis, UniProt P29403); assay: Hydroxylamine inactivation of rhodopsin-mediated basal [35S]GTPγS binding in tadpole ROS membranes; assay type: biochemical; details: 10 mM hydroxylamine, room temperature
T3 construct: from tissue; host or cells: Xenopus laevis tadpole (retina/ROS) membranes
T3 sequence (P29403 1-354): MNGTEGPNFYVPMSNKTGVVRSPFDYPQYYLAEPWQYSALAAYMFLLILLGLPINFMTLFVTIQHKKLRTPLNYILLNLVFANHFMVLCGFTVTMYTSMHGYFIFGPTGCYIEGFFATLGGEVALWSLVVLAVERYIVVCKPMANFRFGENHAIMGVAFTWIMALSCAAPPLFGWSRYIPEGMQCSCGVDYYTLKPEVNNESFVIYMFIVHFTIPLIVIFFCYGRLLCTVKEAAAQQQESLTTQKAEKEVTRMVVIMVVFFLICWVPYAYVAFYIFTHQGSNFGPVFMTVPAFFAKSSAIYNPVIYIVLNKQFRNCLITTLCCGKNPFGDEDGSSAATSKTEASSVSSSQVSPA
Method: as §4

5HT1A receptor [5] = biological target: T4, 5HT1A receptor (Homo sapiens, UniProt P08908); assay: [35S]GTPγS binding to transgenic tadpole membranes expressing 5HT1A; assay type: biochemical
T4 construct: expressed in transfected cells; host or cells: transgenic Xenopus laevis tadpoles (rod cells; homogenized membranes), transgene pXOP-5HTR-GFP-1D4
Method: as §4
T4 sequence (P08908 with tags, fused parts or gaps): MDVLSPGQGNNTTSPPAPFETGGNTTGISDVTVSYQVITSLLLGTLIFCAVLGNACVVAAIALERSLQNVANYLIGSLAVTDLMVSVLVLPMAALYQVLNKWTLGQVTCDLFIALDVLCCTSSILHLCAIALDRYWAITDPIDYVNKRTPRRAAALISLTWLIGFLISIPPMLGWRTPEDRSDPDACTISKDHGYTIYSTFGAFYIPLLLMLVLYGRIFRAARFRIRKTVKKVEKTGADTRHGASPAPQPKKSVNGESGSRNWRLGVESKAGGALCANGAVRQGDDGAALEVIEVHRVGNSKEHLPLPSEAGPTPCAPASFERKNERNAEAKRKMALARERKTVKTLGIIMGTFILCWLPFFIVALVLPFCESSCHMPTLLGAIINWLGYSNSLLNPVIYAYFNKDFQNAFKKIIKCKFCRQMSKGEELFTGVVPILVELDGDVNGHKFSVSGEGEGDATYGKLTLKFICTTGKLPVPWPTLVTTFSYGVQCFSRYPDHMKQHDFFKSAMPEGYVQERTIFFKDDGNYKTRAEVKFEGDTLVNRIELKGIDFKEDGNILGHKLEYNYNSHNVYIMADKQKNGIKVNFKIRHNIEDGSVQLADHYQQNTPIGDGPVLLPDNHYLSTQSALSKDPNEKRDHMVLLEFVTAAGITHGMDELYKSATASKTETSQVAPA

5HT1A receptor [6] = biological target: T2, 5HT1A receptor; assay: [35S]GTPγS binding to CHO membranes transiently expressing 5HT1A; assay type: biochemical; details: CHO cells expressing 5HT1A
Method: as §4

[7] = biological target: transducin in ROS membrane (Xenopus laevis); assay: cell-based or functional assay
[8] = biological target: endogenous G proteins in retina rod cells; assay: cell-based or functional assay

COc1ccccc1N1CCN(CCN(C(=O)c2ccc(F)cc2)c2ccccn2)CC1 [[methyl-^3H]-MPPF]
Kd ([1]; transgenic Xenopus tadpole membranes expressing 5HT1AR-GFP-1D4, 0.05% saponin, saturation binding, read-out: binding affinity KD): 6.7 nM | Kd (5HT1A receptor [2]): 0.35 ± 0.1 nM

[3H]C([3H])([3H])Oc1ccccc1N1CCN(CCN(C(=O)c2ccc(F)cc2)c2ccccn2)CC1 [[methyl-^3H]-MPPF]
specific binding to transgenic 5HT1A tadpole membranes ([1]; FIG. 14, 0.05% saponin, nonspecific binding with 10 μM serotonin): dose-dependent manner | difference in dissociation constants KD between transgenic tadpoles and CHO cells [3]: about 17 fold

NO [hydroxylamine]
effect on [35S]GTPγS binding (CHO membranes): without significant effect | reduction of basal [35S]GTPγS binding [4]: ~50%

NCCc1c[nH]c2ccc(O)cc12 [serotonin, 5-hydroxytryptamine]
stimulation of [35S]GTPγS binding (5HT1A receptor [5]; tadpole membranes pretreated with 10 mM hydroxylamine): about 50% | effect on [35S]GTPγS binding (5HT1A receptor [6]): specifically stimulated

O=C(CCCN1CCC2(CC1)C(=O)NCN2c1ccccc1)c1ccc(F)cc1 [spiperone]
effect on [35S]GTPγS binding (5HT1A receptor [5]; transgenic tadpole membranes): significantly block | effect on [35S]GTPγS binding (5HT1A receptor [6]): significantly block

Xenopus rhodopsin (endogenous, in tadpole eye extracts) (from UniProt P29403 1-354) (receptor)
decrease in basal [^35S]GTPγS binding to tadpole membranes after treatment with 10 mM hydroxylamine [7]: 50%

h5HT1AR-GFP-1D4 fusion protein (from UniProt P08908 1-422) (receptor)
[^35S]GTPγS binding to transgenic tadpole membranes, stimulated by the agonist serotonin [8]: 50%
